ChEMBL document CHEMBL1140835, “Design, synthesis, and in vitro antitumor activity of new 1,4-diarylimidazole-2-ones and their 2-thione analogues” (2008)
One block for each compound: values may come before it.

Experiments:
Type in all cases: functional
[1] = tested on: SK-MEL-5; test: Antiproliferative activity against human SK-MEL-5 cells
[2] = tested on: RXF 393; test: Antiproliferative activity against human RXF393 cells
[3] = tested on: EKVX; test: Antiproliferative activity against human EKVX cells
[4] = tested on: SNB-75; test: Antiproliferative activity against human SNB75 cells
[5] = tested on: CAKI-1; test: Antiproliferative activity against human CAKI-1 cells
[6] = Antiproliferative activity against human […] cells
[7] = tested on: HCT-15; test: Antiproliferative activity against human HCT15 cells
[8] = tested on: CCRF-CEM; test: Antiproliferative activity against human CCRF-CEM cells
[9] = tested on: UACC-62; test: Antiproliferative activity against human UACC62 cells
[10] = tested on: SF-539; test: Antiproliferative activity against human SF539 cells
[11] = tested on: SR; test: Antiproliferative activity against human SR cells; details: for TGI: read-out: pTGI (converted)
[12] = tested on: MOLT-4; test: Antiproliferative activity against human MOLT4 cells
[13] = tested on: HCT-116; test: Antiproliferative activity against human HCT116 cells
[14] = tested on: HOP-92; test: Antiproliferative activity against human HOP92 cells
[15] = tested on: HL-60; test: Antiproliferative activity against human HL60 cells
[16] = tested on: Hs-578T; test: Antiproliferative activity against human HS578T cells
[17] = tested on: DU-145; test: Antiproliferative activity against human DU145 cells
[18] = tested on: SF-295; test: Antiproliferative activity against human SF295 cells
[19] = tested on: PC-3; test: Antiproliferative activity against human PC3 cells
[20] = tested on: RPMI-8226; test: Antiproliferative activity against human RPMI8226 cells
[21] = tested on: 786-0; test: Antiproliferative activity against human 786-0 cells
[22] = tested on: UO-31; test: Antiproliferative activity against human UO31 cells
[23] = tested on: LOX IMVI; test: Antiproliferative activity against human LOX IMVI cells

Compound: COc1cc(-c2cn(-c3ccc(Cl)cc3)c(=O)[nH]2)cc(OC)c1OC
GI50 [1]: > 100 µM
GI50 [2]: > 100 µM
GI50 [3]: > 100 µM
GI50 [4]: > 100 µM
GI50 [5]: > 100 µM
GI50 [6]: > 100 µM
GI50 [7]: > 100 µM
GI50 [8]: > 100 µM
GI50 [9]: > 100 µM
GI50 [10]: > 100 µM
GI50 [11]: 0.0316 µM
TGI [11]: 39.8 µM
GI50 [12]: 0.0199 µM
GI50 [13]: > 100 µM
GI50 [14]: > 100 µM
GI50 [15]: 0.398 µM
GI50 [16]: > 100 µM
GI50 [17]: > 100 µM
GI50 [18]: > 100 µM
GI50 [19]: > 100 µM
GI50 [20]: > 100 µM
GI50 [21]: > 100 µM
GI50 [22]: > 100 µM

Compound: COc1ccc(-n2cc(-c3ccc(OC)c(OC)c3)[nH]c2=S)cc1Cl
GI50 [1]: > 100 µM
GI50 [23]: > 100 µM
GI50 [3]: 39.8 µM
GI50 [4]: 5.01 µM
GI50 [5]: > 100 µM
GI50 [6]: > 100 µM
GI50 [7]: > 100 µM
GI50 [8]: > 100 µM
GI50 [9]: > 100 µM
GI50 [10]: 39.8 µM
GI50 [11]: > 100 µM
GI50 [12]: 79.4 µM
GI50 [13]: > 100 µM
GI50 [14]: 39.8 µM
GI50 [15]: > 100 µM
GI50 [16]: 39.8 µM
GI50 [17]: > 100 µM
GI50 [18]: 39.8 µM
GI50 [19]: > 100 µM
GI50 [20]: > 100 µM
GI50 [21]: 50.1 µM
GI50 [22]: > 100 µM

Compound: COc1ccc(-n2cc(-c3cc(OC)c(OC)c(OC)c3)[nH]c2=S)cc1OC
GI50 [1]: > 100 µM
GI50 [23]: > 100 µM
GI50 [2]: > 100 µM
GI50 [3]: > 100 µM
GI50 [4]: 63.1 µM
GI50 [5]: > 100 µM
GI50 [6]: > 100 µM
GI50 [7]: > 100 µM
GI50 [8]: > 100 µM
GI50 [9]: > 100 µM
GI50 [10]: > 100 µM
GI50 [11]: 2.51 µM
TGI [11]: 7.94 µM
GI50 [12]: 6.31 µM
GI50 [13]: > 100 µM
GI50 [14]: > 100 µM
GI50 [15]: > 100 µM
GI50 [16]: > 100 µM
GI50 [17]: > 100 µM
GI50 [18]: > 100 µM
GI50 [19]: > 100 µM
GI50 [20]: > 100 µM
GI50 [21]: > 100 µM
GI50 [22]: > 100 µM

Compounds with a lower GI50 [1], results first:

GI50 [1]: 39.8 µM
GI50 [7]: > 100 µM
GI50 [8]: 63.1 µM
GI50 [12]: 39.8 µM
GI50 [13]: 50.1 µM
GI50 [15]: > 100 µM
GI50 [17]: 39.8 µM
GI50 [19]: 31.6 µM
GI50 [20]: 50.1 µM
GI50 [21]: 20 µM
Compound: COc1ccc(-n2cc(-c3ccc(Cl)cc3)[nH]c2=S)cc1Cl
GI50 [23]: 100 µM
GI50 [2]: 25.1 µM
GI50 [3]: 39.8 µM
GI50 [4]: 20 µM
GI50 [5]: 25.1 µM
GI50 [6]: 20 µM
GI50 [9]: 79.4 µM
GI50 [10]: 20 µM
GI50 [14]: 15.8 µM
GI50 [16]: 25.1 µM
GI50 [18]: 25.1 µM
GI50 [22]: 20 µM

GI50 [1]: 39.8 µM
GI50 [7]: > 100 µM
GI50 [8]: 39.8 µM
GI50 [12]: 20 µM
GI50 [13]: 15.8 µM
GI50 [15]: 31.6 µM
GI50 [17]: 31.6 µM
GI50 [19]: 63.1 µM
GI50 [20]: 63.1 µM
GI50 [21]: 20 µM
Compound: O=c1[nH]c(-c2ccc(Cl)c(Cl)c2)cn1-c1ccc(Cl)cc1
GI50 [23]: 39.8 µM
GI50 [2]: 31.6 µM
GI50 [3]: 31.6 µM
GI50 [4]: 20 µM
GI50 [5]: 25.1 µM
GI50 [6]: 25.1 µM
GI50 [9]: 25.1 µM
GI50 [10]: 20 µM
GI50 [11]: 5.01 µM
TGI [11]: 15.8 µM
GI50 [14]: 15.8 µM
GI50 [16]: 15.8 µM
GI50 [18]: 25.1 µM
GI50 [22]: 25.1 µM

GI50 [1]: 39.8 µM
GI50 [7]: 79.4 µM
GI50 [12]: > 100 µM
GI50 [13]: 63.1 µM
GI50 [15]: 63.1 µM
GI50 [17]: 1.58 µM
GI50 [19]: 39.8 µM
GI50 [20]: > 100 µM
GI50 [21]: 25.1 µM
Compound: COc1cc(-n2cc(-c3ccccc3)[nH]c2=O)cc(OC)c1OC
GI50 [23]: > 100 µM
GI50 [3]: 25.1 µM
GI50 [4]: 12.6 µM
GI50 [5]: 39.8 µM
GI50 [6]: 31.6 µM
GI50 [9]: 39.8 µM
GI50 [10]: 20 µM
GI50 [11]: > 100 µM
GI50 [14]: 20 µM
GI50 [16]: 31.6 µM
GI50 [18]: 39.8 µM
GI50 [22]: 39.8 µM
